Measured values as given in patent publication US20090088380A1, “GHRH ANALOGS AND THERAPEUTIC USES THEREOF” (priority 2007, published 2009).
Non-standard residues stand in square brackets, D forms with d. Residues, ends and D or L forms follow the SMILES beside them.

What was measured:
Format in all cases: in vivo, human
[1] = test system: IGF-1, IGFBP-1 and IGFBP-3; test: Phase II CKD: total IGF-1, IGFBP-1 and IGFBP-3
Procedure: Total IGF-1 (ng/mL), insulin-like growth factor binding protein (IGFBP-1 and IGFBP-3, ng/mL) were measured at every visit from baseline to Day 28 as markers for tissue and cell growth and proliferation. Samples were analysed at the Department of Nephrology, Endocrinology and Metabolic Diseases, Silesian University School of Medicine, Katowice using a Medgenix Diagnostics kit.

[2] = test system: malnourished subjects with CKD; test: Phase II CKD: Subjective Global Assessment (SGA); settings: for SGA mild to moderately malnourished: (%) / SGA mild to moderately malnourished: n / SGA severely malnourished: (%) / SGA severely malnourished: n / SGA well nourished: (%) / SGA well nourished: n: ITT
Source text: An SGA was an overall evaluation of a subject by an experienced clinician that correlated with the subjective and objective aspects of a medical history and physical examination. An SGA was completed at both the screening and baseline visits, on Day 28 and at the follow-up visit. Review of the medical history included an assessment of weight and weight change, dietary intake, gastrointestinal symptoms, disease state, and the subject's functional status. The SGA also included a physical examination for negative changes in body composition such as loss of subcutaneous fat or muscle wasting, and signs of oedema or ascites (nutrition-related). After evaluation, the subject was classified as well nourished (A), mild to moderately malnourished (B), or severely malnourished (C).

GH and IGF-1 secretion = test: Phase I/II study in healthy male volunteers: GH and IGF-1 secretion
Source text: The primary objectives of the Phase I/II study were to assess safety and tolerability of escalating doses of the GHRH(1-29)NH2 synthetic analog (Maximal Tolerated Dose—MTD) and to determine the minimal effective dose (MED) of the GHRH(1-29)NH2 synthetic analog in terms of stimulation of GH and IGF-1 secretion. The secondary objectives were to establish the lowest dose of the GHRH(1-29)NH2 synthetic analog that induces maximal response with a single subcutaneous administration into healthy male volunteers, to determine the MED for subsequent studies and to establish the most representative blood sampling time for evaluation of GH secretion profile after GHRH(1-29)NH2 synthetic analog administration to be used in subsequent studies.
It was a crossover single-blinded Phase I/II trial of escalating doses of the GHRH(1-29)NH2 synthetic analog controlled versus placebo. Ten healthy middle-aged male volunteers, between 50 and 55 years old, were recruited. All 10 subjects received a single subcutaneous dose of the GHRH(1-29)NH2 synthetic analog (reconstituted in water for injection), per day for 5 days, in a dose range from 5 to 25 μg/kg of body weight (lower than the maximal dose used to treat GH deficiency in children, which was 30 μg/kg of body weight).
Each volunteer was hospitalized for 6 days. All volunteers were randomized into 5 groups (2 volunteers per group). During the first 24 hours of hospitalization (Day 0), scheduled blood samples were obtained for GH and IGF-1 assessment (GH and IGF-1 baseline sampling) and then from Day 1 until Day 5, following each GHRH(1-29)NH2 synthetic analog or placebo dose administration, according to the established randomization plan.
Once the volunteers were considered eligible, they were hospitalized for a period of 5 consecutive days. On Day 0 of admission successive samples of blood were taken to perform the basal secretion profile of GH during 24 hours. During 5-day hospitalization period, after the initial blood sampling to determine fasting glucose level, the appropriate dose of the GHRH(1-29)NH2 synthetic analog or placebo was administered and multiple samplings were performed to assess the profile of GH, postprandial glucose level and electrocardiogram after 60 minutes of the application of the GHRH(1-29)NH2 synthetic analog/placebo. Eight hours after drug administration, samples were obtained to determine IGF-1 level, thyroid hormones and routine analysis. After 30 days of admission, all the volunteers returned for new clinical evaluation to record any adverse events that could have occurred from the last day of hospitalization period and to take a blood sample for later determination of anti-GHRH(1-29)NH2 synthetic analog antibodies.
Serum human GH was measured by using a commercial DSL-1900 ACTIVE® Human Growth Hormone Coated-Tube Immunoradiometric Assay Kit purchased from Diagnostic Systems Laboratories, Inc., Texas, USA. Serum IGF-1 was measured using DSL-9400 ACTIVE® Free Insulin-Like Growth Factor-I Coated-Tube IRMA Kit purchased from Diagnostic Systems Laboratories.
To determine MED, GH secretion curves were drawn and the area under the curve (AUC) calculated for each study drug dose.

[3] = Baseline, listed as GHRH(1-29)NH2 synthetic analog

CC[C@H](C)[C@H](NC(=O)[C@H](C)NC(=O)[C@H](CC(=O)O)NC(=O)[C@@H](C)NC(=O)[C@@H](N)Cc1ccc(O)cc1)C(=O)N[C@@H](Cc1ccccc1)C(=O)N[C@H](C(=O)N[C@@H](CC(N)=O)C(=O)N[C@@H](CO)C(=O)N[C@H](Cc1ccc(O)cc1)C(=O)N[C@@H](CCCNC(=N)N)C(=O)N[C@@H](CCCCN)C(=O)N[C@H](C(=O)N[C@@H](CC(C)C)C(=O)N[C@H](C)C(=O)N[C@@H](CCC(N)=O)C(=O)N[C@@H](CC(C)C)C(=O)N[C@@H](CO)C(=O)N[C@@H](C)C(=O)N[C@@H](CCCNC(=N)N)C(=O)N[C@@H](CCCCN)C(=O)N[C@@H](CCCCN)C(=O)N[C@@H](CC(C)C)C(=O)N[C@@H](CCC(N)=O)C(=O)N[C@@H](CC(=O)O)C(=O)N[C@H](C(=O)N[C@@H](CCSC)C(=O)N[C@@H](CO)C(=O)N[C@@H](CCCNC(=N)N)C(N)=O)[C@@H](C)CC)C(C)C)[C@@H](C)O [GHRH analog #5, [D-Ala^2, D-Tyr^10, D-Ala^15, Lys^22] hGHRH(1-29)-NH2] (H-Y[dA]DAIFTNS[dY]RKVL[dA]QLSARKKLQDIMSR-NH2)
Mean decrease in IGFBP-1 concentration ([1]; 4-week treatment): 26.7% | IGFBP-3: adjusted difference between treatments ([1]; ITT): 580.85 ng/mL | IGFBP-1: mean (SD) ([1]; ITT, Baseline): 74.98 (39.13) ng/mL | IGFBP-3: median ([1]; ITT, Baseline): 4039.6 (813.7) ng/mL | Total IGF-1: median (95% CI) ([1]; ITT, Baseline): 335.8 (—) ng/mL | Total IGF-1: median (95% CI) ([1]; ITT, Baseline, listed as GHRH(1-29)NH2 synthetic analog): 335.8 ng/mL | Total IGF-1: median (95% CI) ([1]; ITT, Day 7): 576.0 (494.10; 828.70) ng/mL | Total IGF-1: median (95% CI) ([1]; ITT, Day 14): 611.8 (490.40; 913.60) ng/mL | Total IGF-1: median (95% CI) ([1]; ITT, Day 21): 729.8 (497.10; 913.50) ng/mL | IGFBP-1: mean (SD) ([1]; ITT, Day 28): 54.94 (30.72) ng/mL | IGFBP-3: median ([1]; ITT, Day 28): 5130.8 (961.0) ng/mL | Total IGF-1: median (95% CI) ([1]; ITT, Day 28): 684.2 (564.10; 881.80) ng/mL | Total IGF-1: median (95% CI) ([1]; ITT, Day 28, listed as GHRH(1-29)NH2 synthetic analog): 684.2 ng/mL | IGFBP-1: adjusted difference between GHRH and placebo ([1]; ITT, listed as GHRH(1-29)NH2 synthetic analog): 28.40 ng/mL | Median total IGF-1: increase ([1]; baseline to day 28): 104% | SGA mild to moderately malnourished: (%) ([2]; Baseline): (69.2%) | SGA mild to moderately malnourished: n ([2]; Baseline): 9 | SGA severely malnourished: (%) ([2]; Baseline): (7.7%) | SGA severely malnourished: n ([2]; Baseline): 1 | SGA well nourished: (%) ([2]; Baseline): (23.1%) | SGA well nourished: n ([2]; Baseline): 3 | SGA severely malnourished: (%) [2, 3]: 7.7% | SGA well nourished: (%) [2, 3]: 23.1% | SGA mild to moderately malnourished: (%) ([2]; Day 28): (16.7%) | SGA mild to moderately malnourished: n ([2]; Day 28): 2 | SGA severely malnourished: (%) ([2]; Day 28): (8.3%) | SGA severely malnourished: n ([2]; Day 28): 1 | SGA well nourished: (%) ([2]; Day 28): (75.0%) | SGA well nourished: n ([2]; Day 28): 9 | SGA well nourished: (%) ([2]; Day 28, listed as GHRH(1-29)NH2 synthetic analog): 75.0% | Mild to moderate malnourished patients (of 9) who became well nourished ([2]; after 28 days of therapy): 6 | AUC of GH level in the first 12 hours (GH and IGF-1 secretion; 5 μg/kg body weight): 61.76 | AUC of GH level in the first 12 hours (GH and IGF-1 secretion; 10 μg/kg body weight): 71.25 | AUC of GH level in the first 12 hours (GH and IGF-1 secretion; 15 μg/kg body weight): 135.17 | AUC of GH level in the first 12 hours (GH and IGF-1 secretion; 25 μg/kg body weight): 149.48 | IGF-1 mean level (GH and IGF-1 secretion; Day 1 of treatment): 156 ng/mL | IGF-1 mean level (GH and IGF-1 secretion; Day 5 of treatment): 231 ng/mL | GH levels compared to placebo (GH and IGF-1 secretion; any dose): unequivocally higher at any dose
